Source: the supplement of paper PMC10331698
± gives the standard deviation of the averaged measurements.

Experiments:
Experiment in all cases: level (log10 ratio to DMSO vehicle control); higher = higher biomarker level / cell amount than vehicle control
Settings in all cases: in DMSO
[1] = compound: O=C(O)C(F)(F)OC(F)(F)C(F)(F)OC(F)(F)C(=O)O [Perfluoro-3,6-dioxaoctane-1,8-dioic acid]
Description: (§1)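 BioMAP Diversity Plus panel of 12 human primary cell co-culture systems (3C, 4H, LPS, SAg, BT, BF4T, BE3C, CASM3C, HDF3CGF, KF3CT, MyoF, Mphg). Compounds were added 1 h before stimulation and left for 24 h (MyoF 48 h; BT 72 h for soluble read-outs or 6 d for IgG). Biomarkers were read by ELISA, cytotoxicity by SRB, PBMC viability and proliferation by Alamar Blue. Each well value was divided by the mean of 8 DMSO control wells on the same plate and log10 transformed; duplicate blinded samples were tested at 4 concentrations.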

[2] = compound: COC(=O)CCC(F)(F)C(F)(F)C(F)(F)C(F)(F)F [Methyl 2H,2H,3H,3H-perfluoroheptanoate]
Description: as §1

Perfluoropropanoic acid = compound: O=C(O)C(F)(F)C(F)(F)F [Perfluoropropanoic acid]
Description: as §1

[3] = compound: FC(F)C(F)(F)COCC1CO1 [((2,2,3,3-Tetrafluoropropoxy)methyl)oxirane]
Description: as §1

[4] = compound: C=CC(F)(F)C(F)(F)C(F)(F)C(F)(F)C(F)(F)C(F)(F)C(F)(F)C(F)(F)C=C [1,8-Divinylperfluorooctane]
Description: as §1

[5] = compound: OCC(F)(F)OC(F)(F)C(F)(F)OC(F)(F)CO [1H,1H,8H,8H-Perfluoro-3,6-dioxaoctane-1,8-diol]
Description: as §1

| Test System | level (log10) ([1]; 6700 nM) | level (log10) ([1]; 20000 nM) | level (log10) ([1]; 60000 nM) | level (log10) ([2]; 6700 nM) | level (log10) ([2]; 20000 nM) | level (log10) ([2]; 60000 nM) | level (log10) (Perfluoropropanoic acid; 6700 nM) | level (log10) (Perfluoropropanoic acid; 20000 nM) | level (log10) (Perfluoropropanoic acid; 60000 nM) | level (log10) ([3]; 6700 nM) | level (log10) ([3]; 20000 nM) | level (log10) ([3]; 60000 nM) | level (log10) ([4]; 6700 nM) | level (log10) ([4]; 20000 nM) | level (log10) ([5]; 6700 nM) | level (log10) ([5]; 20000 nM) | level (log10) ([5]; 60000 nM) |
| --- | --- | --- | --- | --- | --- | --- | --- | --- | --- | --- | --- | --- | --- | --- | --- | --- | --- |
| MyoF:PAI-I | 0.003 ± 0.013 | -0.0005 ± 0.0064 | 0.005 ± 0.0085 | -0.003 | 0.0055 ± 0.0078 | 0.003 ± 0.014 | -0.0035 ± 0.013 | -0.0165 ± 0.0035 | -0.0035 ± 0.012 | -0.008 ± 0.0028 | -0.002 ± 0.0085 | -0.0115 ± 0.0064 | 0.003 ± 0.0071 | 0.006 ± 0.0071 | -0.008 ± 0.0099 | -0.008 ± 0.017 | 0.0025 ± 0.0078 |
| MyoF:SRB | 0 ± 0.011 | -0.007 ± 0.0042 | 0.0065 ± 0.0078 | -0.004 ± 0.0028 | 0.0065 ± 0.0035 | 0.0065 ± 0.0064 | 0.0015 ± 0.012 | 0.0005 ± 0.011 | -0.0015 ± 0.0092 | -0.003 | -0.007 ± 0.0042 | -0.0035 ± 0.0035 | 0.0165 ± 0.013 | 0.006 ± 0.0057 | -0.0045 ± 0.00071 | -0.001 ± 0.0014 | -0.017 ± 0.013 |
| MyoF:TIMP-1 | 0.0065 ± 0.056 | 0.02 ± 0.037 | 0.026 ± 0.0014 | -0.0585 ± 0.047 | -0.02 ± 0.035 | 0.01 ± 0.014 | 0.0645 ± 0.077 | 0.05 ± 0.047 | 0.0465 ± 0.12 | 0.0165 ± 0.018 | -0.0295 ± 0.0092 | -0.001 ± 0.023 | -0.0315 ± 0.054 | 0.01 ± 0.076 | -0.0015 ± 0.036 | 0.038 ± 0.025 | 0.052 ± 0.03 |
| MyoF:alpha-SM Actin | 0.001 | -0.0125 ± 0.013 | 0.0245 ± 0.0021 | -0.009 ± 0.024 | -0.007 ± 0.02 | -0.0035 ± 0.04 | -0.031 ± 0.035 | -0.013 ± 0.017 | 0.011 ± 0.0057 | -0.0185 ± 0.019 | 0.0015 ± 0.022 | -0.0075 ± 0.03 | -0.016 ± 0.0042 | -0.0155 ± 0.028 | 0.003 ± 0.0057 | 0.013 ± 0.017 | 0.004 ± 0.018 |
| MyoF:bFGF | 0.0075 ± 0.021 | 0.001 ± 0.0099 | 0 ± 0.018 | -0.0125 ± 0.012 | -0.008 ± 0.013 | -0.0075 ± 0.019 | -0.0175 ± 0.016 | 0.01 ± 0.0028 | 0.015 ± 0.038 | 0.012 ± 0.0057 | 0.0095 ± 0.0035 | 0.012 ± 0.011 | 0.001 ± 0.0099 | 0.012 ± 0.02 | -0.001 ± 0.016 | 0.0075 ± 0.011 | 0.004 ± 0.0057 |
| lMphg:CCL2/MCP-1 | -0.0165 ± 0.021 | -0.019 ± 0.027 | -0.008 ± 0.0057 | -0.004 ± 0.0085 | -0.011 ± 0.011 | 0.003 ± 0.031 | -0.021 ± 0.017 | -0.0045 ± 0.0064 | 0.002 ± 0.013 | -0.039 ± 0.034 | -0.018 ± 0.048 | -0.0095 ± 0.029 | -0.0195 ± 0.013 | 0.0125 ± 0.03 | -0.0115 ± 0.0035 | -0.0145 ± 0.012 | 0.0155 ± 0.012 |
| lMphg:CCL3/MIP-1alpha | -0.036 ± 0.025 | -0.045 ± 0.0042 | -0.027 ± 0.04 | -0.0315 ± 0.005 | -0.013 ± 0.0028 | -0.004 ± 0.045 | -0.0105 ± 0.023 | -0.0235 ± 0.0021 | 0.0115 ± 0.013 | -0.027 ± 0.059 | -0.0385 ± 0.084 | -0.0025 ± 0.026 | -0.019 ± 0.0071 | 0.0065 ± 0.046 | -0.004 ± 0.04 | -0.0025 ± 0.022 | 0.0215 ± 0.029 |
| lMphg:CD40 | -0.03 ± 0.017 | -0.0085 ± 0.013 | -0.0105 ± 0.016 | -0.0295 ± 0.0035 | -0.0285 ± 0.005 | -0.039 ± 0.034 | -0.0045 ± 0.021 | -0.0145 ± 0.023 | 0.004 ± 0.0028 | 0.0185 ± 0.061 | 0.0195 ± 0.029 | 0.0015 ± 0.011 | -0.04 ± 0.0099 | -0.0195 ± 0.032 | -0.015 ± 0.02 | -0.0845 ± 0.0035 | -0.0265 ± 0.0035 |
| lMphg:CD62E/E-Selectin | -0.027 ± 0.034 | -0.018 ± 0.016 | 0.0185 ± 0.0092 | -0.004 ± 0.0028 | -0.0245 ± 0.016 | -0.0075 ± 0.018 | -0.008 ± 0.0057 | -0.004 ± 0.0099 | 0.0385 ± 0.0035 | -0.0155 ± 0.0064 | -0.0195 ± 0.029 | -0.035 ± 0.011 | -0.006 ± 0.024 | -0.054 ± 0.038 | -0.0235 ± 0.019 | 0.004 ± 0.033 | -0.003 ± 0.03 |
| lMphg:CD69 | -0.0565 ± 0.015 | 0 ± 0.054 | -0.024 ± 0.098 | -0.016 ± 0.028 | -0.029 ± 0.033 | 0.006 ± 0.017 | 0.0105 ± 0.059 | -0.022 ± 0.025 | 0.0045 ± 0.029 | -0.048 ± 0.02 | -0.001 ± 0.0071 | -0.028 ± 0.033 | -0.013 ± 0.0042 | -0.011 ± 0.014 | -0.0305 ± 0.0064 | -0.041 ± 0.025 | -0.0145 ± 0.13 |
| lMphg:CD106/VCAM-1 | -0.013 ± 0.0071 | -0.0165 ± 0.0021 | -0.0165 ± 0.036 | -0.0055 ± 0.012 | 0.009 ± 0.0057 | 0.0055 ± 0.037 | -0.008 ± 0.013 | 0.0185 ± 0.0035 | 0.023 ± 0.016 | -0.016 ± 0.038 | -0.0155 ± 0.025 | -0.017 ± 0.017 | -0.014 ± 0.018 | -0.016 ± 0.016 | -0.0355 ± 0.05 | -0.0035 ± 0.012 | -0.028 ± 0.034 |
| lMphg:CXCL8/IL-8 | -0.024 ± 0.027 | 0 ± 0.068 | -0.002 ± 0.085 | -0.0045 ± 0.018 | -0.0025 ± 0.0064 | -0.0005 ± 0.018 | 0.0055 ± 0.0078 | 0.017 ± 0.018 | 0.0175 ± 0.043 | -0.0125 ± 0.066 | -0.001 ± 0.017 | -0.005 ± 0.011 | 0.0055 ± 0.026 | 0.0125 ± 0.064 | 0.0065 ± 0.079 | 0.007 ± 0.072 | 0.0235 ± 0.1 |
| lMphg:IL-1alpha | 0.009 ± 0.018 | 0.001 | 0.0015 ± 0.0035 | -0.0215 ± 0.056 | -0.0265 ± 0.035 | 0.029 ± 0.082 | -0.0235 ± 0.00071 | -0.019 ± 0.038 | 0.035 ± 0.027 | -0.004 ± 0.017 | -0.039 ± 0.035 | -0.0235 ± 0.033 | 0.003 ± 0.027 | 0.046 ± 0.034 | -0.027 ± 0.09 | -0.036 ± 0.035 | -0.021 ± 0.018 |
| lMphg:M-CSF | -0.009 | -0.0185 ± 0.015 | 0.01 ± 0.042 | -0.0325 ± 0.0078 | -0.0275 ± 0.005 | 0.0075 ± 0.022 | -0.014 ± 0.0085 | -0.0155 ± 0.00071 | 0.003 ± 0.017 | -0.0155 ± 0.013 | 0 ± 0.024 | -0.0265 ± 0.015 | -0.0315 ± 0.005 | 0.0015 ± 0.039 | -0.011 ± 0.0071 | -0.004 ± 0.0085 | -0.01 ± 0.0028 |
| lMphg:SRB | -0.0035 ± 0.013 | -0.009 ± 0.014 | -0.0035 ± 0.015 | -0.008 ± 0.02 | -0.016 ± 0.0057 | -0.0095 ± 0.023 | -0.0065 ± 0.005 | -0.0125 ± 0.0021 | -0.011 ± 0.016 | -0.008 ± 0.0042 | 0 ± 0.0028 | -0.0125 ± 0.0021 | 0.0125 ± 0.00071 | 0.019 ± 0.0028 | -0.028 ± 0.021 | 0.015 | -0.0375 ± 0.0021 |
| lMphg:SRB-Mphg | -0.0025 ± 0.0035 | -0.009 ± 0.016 | -0.003 ± 0.0099 | -0.0285 ± 0.012 | -0.022 ± 0.095 | 0.04 ± 0.057 | -0.0375 ± 0.035 | -0.096 ± 0.057 | -0.0265 ± 0.1 | 0.0075 ± 0.016 | 0.021 ± 0.025 | 0.02 ± 0.033 | -0.0135 ± 0.016 | 0.0495 ± 0.0092 | -0.015 ± 0.033 | 0.0175 ± 0.023 | 0.0455 ± 0.077 |
| lMphg:sIL-10 | -0.0425 ± 0.011 | -0.0615 ± 0.036 | -0.058 ± 0.055 | -0.0515 ± 0.029 | -0.117 ± 0.12 | 0.0005 ± 0.037 | -0.0045 ± 0.016 | 0.008 ± 0.0099 | -0.042 ± 0.024 | -0.087 ± 0.024 | -0.043 ± 0.027 | 0.0075 ± 0.018 | -0.053 ± 0.085 | -0.0135 ± 0.03 | -0.0295 ± 0.022 | -0.0355 ± 0.13 | 0.0065 ± 0.00071 |
